A short description of assay [1]: Inhibition of HCV NS3-4A protease. The arrangement: species or system Hepacivirus hominis.
In the next assay the test system is Hepatitis C virus. Description: Antiviral activity against HCV replicon. It is filed as functional, organism-based, Hepacivirus hominis.

Molecules are shown by their SMILES.

One may read the IC50 as the concentration that gives 50% inhibition. Read a low IC50 as inhibition by little substance. A word on the EC50: it is the concentration giving half of the maximal effect. A lower EC50 goes with higher potency in that assay.

Turning to `C=C[C@@H]1C[C@]1(NC(=O)[C@@H]1C[C@@H](Oc2cc(-c3ccccc3)nc3cc(OC)ccc23)CN1C(=O)N(CC(C)C)NC(=O)OC(C)(C)C)C(=O)O`, in assay [1], the IC50 turned out to be 2.1 µM. This compound also yielded a half-maximal effective concentration (EC50) in the assay with Hepatitis C virus of 53 µM.

In turn, `COc1ccc2c(O[C@@H]3C[C@H]4C(=O)N[C@]5(C(=O)O)C[C@H]5/C=C\CCCCC[C@H](NC(=O)OC(C)(C)C)C(=O)N4C3)cc(-c3ccccc3)nc2c1` came in with an IC50 in assay [1] of 0.011 µM. Also, in the assay with Hepatitis C virus, a half-maximal effect (EC50) was put at 0.077 µM.

For `C=C[C@@H]1C[C@]1(NC(=O)[C@@H]1C[C@@H](Oc2cc(-c3ccccc3)nc3cc(OC)ccc23)CN1C(=O)N(NC(=O)OC(C)(C)C)C1CCCCC1)C(=O)O`, the midpoint of inhibition in assay [1], the IC50, lay at 3.5 µM.

The compound `COc1ccc2c(O[C@@H]3C[C@H]4C(=O)N[C@]5(C(=O)O)C[C@H]5/C=C\CCCCCN(NC(=O)OC(C)(C)C)C(=O)N4C3)cc(-c3ccccc3)nc2c1` registered a 50% inhibitory concentration (IC50) in assay [1] of 3.8 µM. Also, in the assay on Hepatitis C virus, the 50% effective concentration (EC50) is 31 µM.

`COc1ccc2c(O[C@@H]3C[C@H]4C(=O)N[C@]5(C(=O)O)C[C@H]5/C=C\CCCCC[C@H](NC(=O)OC5CCCC5)C(=O)N4C3)cc(-c3csc(NC(C)C)n3)nc2c1` [CILUPREVIR] returned an IC50 in assay [1] of 0.003 µM. In addition, the EC50 with Hepatitis C virus was 0.0012 µM.

The values above are taken from ChEMBL document CHEMBL1144799, “Synthesis, antiviral activity, and conformational studies of a P3 aza-peptide analog of a potent macrocyclic tripeptide HCV protease inhibitor” (Bioorg Med Chem Lett, 2008).
